Assay results as given in patent US4068074A, “Cephalosporin derivatives having at the 3-position of the cephem ring a heterocyclic thiomethyl group with a carboxy or sulfo group and at the 7-position of the cephem ring an α-heterocylic acylaminophenyl-acetamide group” (priority 1974, dated 1978).
≈ marks a conversion by molar mass, not a printed value. Where two headings read alike, the source gives them in different places.

Assays:
Type in all cases: cell-based
[1] = test system: Staphylococcus Shimanishi; assay: MIC against bacteria (Table I), strain (17)
From the text: (§1) Now, for illustrating the excellent pharmacological effects of the compounds of this invention, the values of MIC (γ/ml.) of the compounds against various bacteria are shown in Table 1, in which the compounds of this invention used are shown by example numbers.
(17) Staphylococcus Shimanishi

Shigella sonnei II 37148 = assay: MIC against bacteria (Table I), strain (12); conditions: II37148; (12) Shigella sonnei II 37148; read-out: MIC
From the text: as §1

[2] = test system: Psuedomonas ovalis IMA 1002; assay: MIC against bacteria (Table I), strain (6); conditions: (6) Psuedomonas ovalis IMA 1002; read-out: MIC
From the text: as §1
(6) Psuedomonas ovalis IMA 1002

Salmonella typhi H901 W = assay: MIC against bacteria (Table I), strain (9); conditions: Salmonella enterica, TYPHI
From the text: as §1
(9) Salmonella typhi H901 W

[3] = test system: Bacillus subtilis ATCC 6633; assay: MIC against bacteria (Table I), strain (14); conditions: ATCC6633; (14) Bacillus subtilis ATCC 6633; read-out: MIC
From the text: as §1
(14) Bacillus subtilis ATCC 6633

Proteus vulgaris 0X 19US = assay: MIC against bacteria (Table I), strain (2); conditions: 0X19US
From the text: as §1
(2) Proteus vulgaris 0X 19US

[4] = test system: Staphylococcus aureus 209P; assay: MIC against bacteria (Table I), strain (16)
From the text: as §1
(16) Staphylococcus aureus 209P

[5] = test system: Shigella flexneri 2a 1675; assay: MIC against bacteria (Table I), strain (11); conditions: 2A1675; (11) Shigella flexneri 2a 1675; read-out: MIC
From the text: as §1

[6] = test system: Micrococcus flavus ATCC 10240; assay: MIC against bacteria (Table I), strain (15); conditions: ATCC10240
From the text: as §1
(15) Micrococcus flavus ATCC 10240

Salmonella enteritidis = assay: MIC against bacteria (Table I), strain (10); conditions: Salmonella enterica; (10) Salmonella enteritidis; read-out: MIC
From the text: as §1
(10) Salmonella enteritidis

[7] = test system: Escherichia coli kauffmann 0-1; assay: MIC against bacteria (Table I), strain (7)
From the text: as §1
(7) Escherichia coli kauffmann 0-1

[8] = test system: Klebsiella pneumoniae ATCC 10031; assay: MIC against bacteria (Table I), strain (8); conditions: ATCC10031
From the text: as §1
(8) Klebsiella pneumoniae ATCC 10031

Staphylococcus Onuma = assay: MIC against bacteria (Table I), strain (18)
From the text: as §1
(18) Staphylococcus Onuma

[9] = test system: Bacillus megatherium 10778; assay: MIC against bacteria (Table I), strain (13); conditions: (13) Bacillus megatherium 10778; read-out: MIC
From the text: as §1

[10] = test system: Pseudomonas aeruginosa 99 (Gentamycin resistant); assay: MIC against bacteria (Table I), strain (5)
From the text: as §1
(5) Pseudomonas aeruginosa 99 (Gentamycin resistant)

[11] = test system: Proteus mirabilis IXM OM-19; assay: MIC against bacteria (Table I), strain (3); conditions: IXMOM19; (3) Proteus mirabilis IXM OM-19; read-out: MIC
From the text: as §1
(3) Proteus mirabilis IXM OM-19

[12] = (2) Proteus vulgaris 0X 19US, read-out: MIC
[13] = (5) Pseudomonas aeruginosa 99 (Gentamycin resistant), read-out: MIC
[14] = (17) Staphylococcus Shimanishi, read-out: MIC
[15] = (15) Micrococcus flavus ATCC 10240, read-out: MIC
[16] = (8) Klebsiella pneumoniae ATCC 10031, read-out: MIC
[17] = (18) Staphylococcus Onuma, read-out: MIC
[18] = (16) Staphylococcus aureus 209P, read-out: MIC

Structure (SMILES) | MIC ([1]; Staphylococcus) [µg/mL] | MIC (Shigella sonnei II 37148) [µg/mL] | MIC [2] [µg/mL] | MIC (Salmonella typhi H901 W) [µg/mL] | MIC [3] [µg/mL] | MIC (Proteus vulgaris 0X 19US; [12]) [µg/mL] | MIC ([4]; Staphylococcus aureus, 209P) [µg/mL] | MIC [5] [µg/mL] | MIC ([6]; Micrococcus flavus) [µg/mL] | MIC (Salmonella enteritidis) [µg/mL] | MIC ([7]; Escherichia coli) [µg/mL] | MIC ([8]; Klebsiella pneumoniae) [µg/mL] | MIC (Staphylococcus Onuma; Staphylococcus) [µg/mL] | MIC [9] [µg/mL] | MIC [10, 13] [µg/mL] | MIC [11] [µg/mL] | MIC [1, 14] [µg/mL] | MIC [6, 15] [µg/mL] | MIC [8, 16] [µg/mL] | MIC (Staphylococcus Onuma; [17]) [µg/mL] | further results
Cc1nc(SCC(=O)O)cc(SCC2=C(C(=O)O)N3C(=O)[C@@H](NC(=O)[C@H](NC(=O)c4cnccc4O)c4ccccc4)[C@H]3SC2)n1 [Example 17, 7-[D-α-(4-hydroxynicotinoylamido)-α-phenylacetamido]-3-(6-carboxymethylthio-2-methylpyrimidin-4-yl)thiomethyl-Δ^3-cephem-4-carboxylic acid] | 6.25 (≈ 9.15 µM) | 6.25 (≈ 9.15 µM) | 25 (≈ 36.6 µM) | 3.13 (≈ 4.58 µM) | 0.39 (≈ 0.571 µM) | 1.56 (≈ 2.28 µM) | 0.19 (≈ 0.278 µM) | 3.13 (≈ 4.58 µM) | 6.25 (≈ 9.15 µM) | 0.19 (≈ 0.278 µM) | 6.25 (≈ 9.15 µM) | 6.25 (≈ 9.15 µM) | 6.25 (≈ 9.15 µM) | 0.39 (≈ 0.571 µM) | 50 (≈ 73.2 µM) | 0.19 (≈ 0.278 µM) | – | – | – | – | –
O=C(O)Cn1nc(SCC2=C(C(=O)O)N3C(=O)[C@@H](NC(=O)[C@H](NC(=O)c4cnccc4O)c4ccccc4)[C@H]3SC2)ccc1=O [Example 18, 7-[D-α-(4-hydroxynicotinoylamido)-α-phenylacetamido]-3-(1-carboxymethyl-6(1H)-pyridazinon-3-yl)thiomethyl-Δ^3-cephem-4-carboxylic acid] | – | 25 (≈ 38.3 µM) | 25 (≈ 38.3 µM) | 3.13 (≈ 4.8 µM) | 0.39 (≈ 0.598 µM) | 1.56 (≈ 2.39 µM) | 1.56 (≈ 2.39 µM) | 12.5 (≈ 19.2 µM) | – | 1.56 (≈ 2.39 µM) | 12.5 (≈ 19.2 µM) | – | – | 0.39 (≈ 0.598 µM) | 25 (≈ 38.3 µM) | 0.78 (≈ 1.2 µM) | 6.25 (≈ 9.58 µM) | 25 (≈ 38.3 µM) | 25 (≈ 38.3 µM) | 6.25 (≈ 9.58 µM) | –
Nc1nc(SCC(=O)O)cc(SCC2=C(C(=O)O)N3C(=O)[C@@H](NC(=O)[C@H](NC(=O)c4cnccc4O)c4ccccc4)[C@H]3SC2)n1 [Example 19, 7-[D-α-(4-hydroxynicotinoylamido)-α-phenylacetamido]-3-(2-amino-4-carboxymethylthiopyrimidin-6-yl)thiomethyl-Δ^3-cephem-4-carboxylic acid] | – | 25 (≈ 36.6 µM) | 50 (≈ 73.1 µM) | 3.13 (≈ 4.58 µM) | 0.78 (≈ 1.14 µM) | – | 3.13 (≈ 4.58 µM) | 6.25 (≈ 9.14 µM) | – | 1.56 (≈ 2.28 µM) | – | 25 (≈ 36.6 µM) | – | 0.78 (≈ 1.14 µM) | – | 0.39 (≈ 0.57 µM) | 12.5 (≈ 18.3 µM) | 12.5 (≈ 18.3 µM) | – | 12.5 (≈ 18.3 µM) | MIC (Proteus vulgaris 0X 19US; Proteus vulgaris): 6.25 µg/mL (≈ 9.14 µM); MIC ([7]; (7) Escherichia coli kauffmann 0-1, read-out: MIC): 12.5 µg/mL (≈ 18.3 µM)
Cc1ncc(C(=O)N[C@@H](C(=O)N[C@@H]2C(=O)N3C(C(=O)O)=C(CSc4nnc(SCC(=O)O)s4)CS[C@H]23)c2ccccc2)c(O)n1 [Example 20, 7-[D-α-(4-hydroxy-2-methylpyrimidin-5-ylcarboxamido)-α-phenylacetamido]-3-(5-carboxymethylthio-1,3,4-thiadiazol-2-yl)thiomethyl-Δ^3-cephem-4-carboxylic acid] | 12.5 (≈ 18.1 µM) | 12.5 (≈ 18.1 µM) | 50 (≈ 72.5 µM) | 12.5 (≈ 18.1 µM) | 3.13 (≈ 4.54 µM) | < 0.09 | – | 6.25 (≈ 9.06 µM) | 6.25 (≈ 9.06 µM) | 3.13 (≈ 4.54 µM) | 12.5 (≈ 18.1 µM) | – | 12.5 (≈ 18.1 µM) | 1.56 (≈ 2.26 µM) | 25 (≈ 36.2 µM) | 0.39 (≈ 0.565 µM) | – | – | 25 (≈ 36.2 µM) | – | MIC [4, 18]: 3.13 µg/mL (≈ 4.54 µM)
COc1cc(O)ncc1C(=O)N[C@@H](C(=O)N[C@@H]1C(=O)N2C(C(=O)O)=C(CSc3nnc(SCC(=O)O)s3)CS[C@H]12)c1ccccc1 [Example 28, 7-[D-α-(6-hydroxy-4-methoxynicotinoylamido)-α-phenylacetamido]-3-(5-carboxymethylthio-1,3,4-thiadiazol-2-yl)thiomethyl-Δ^3-cephem-4-carboxylic acid] | – | 25 (≈ 35.5 µM) | 50 (≈ 70.9 µM) | 50 (≈ 70.9 µM) | 12.5 (≈ 17.7 µM) | 12.5 (≈ 17.7 µM) | – | 25 (≈ 35.5 µM) | – | 12.5 (≈ 17.7 µM) | 25 (≈ 35.5 µM) | – | – | 6.25 (≈ 8.87 µM) | – | 6.25 (≈ 8.87 µM) | 100 (≈ 142 µM) | 12.5 (≈ 17.7 µM) | 50 (≈ 70.9 µM) | 100 (≈ 142 µM) | MIC [4, 18]: 12.5 µg/mL (≈ 17.7 µM); MIC ([10]; Pseudomonas aeruginosa): 25 µg/mL (≈ 35.5 µM)
